Here are results for four compounds from ChEMBL document CHEMBL1125524, “Adenosine A1 antagonists. 2. Structure-activity relationships on diuretic activities and protective effects against acute renal failure” (J Med Chem, 1992).

Experiment [1] deals with Rattus norvegicus. Put plainly: Urea nitrogen concentration measured after intraperitoneal administration of 10 mg/kg of compound to rats(vehicle 93.6+/-8.6). It is filed as functional.
The test system of experiment [2] is Rattus norvegicus. Put plainly: Effect on urinary excretion potassium and sodium after oral administration of 12.5 mg/kg to rats(potassium and sodium excretion in control rat is 0.175+/-0.014). The experiment is classed as functional, Urine.
Experiment [3] deals with Rattus norvegicus. Put plainly: Ratio of urinary excretion value (Na+ concentration) in treated rats to that in control rats, at a peroral dose of 12.5 mg/Kg. It is filed as functional, Urine.
The target in experiment [4] is T1, Adenosine A2 receptor (Rattus norvegicus, UniProt P29276+P30543).
Description: Binding affinity towards adenosine A2 receptor in rat striatal membranes using N-[3H]-ethyladenosin-5''-uronamide as radioligand
The subject of experiment [5] is Rattus norvegicus. Put plainly: Serum creatinine concentration measured after intraperitoneal administration of 10 mg/kg of compound to rats(vehicle 2.89+/-0.30). The experiment is classed as functional.
In experiment [6] the test system is Rattus norvegicus. In words: Percent inhibition of serum creatinine by the compound given as ratio of Cr value in treated to vehicle treated ones after intraperitoneal administration of 10 mg/kg of compound to rats(vehicle 2.89+/-0.30). Conditions: ip. It is filed as functional.
In experiment [7] the test system is Rattus norvegicus. In words: Percent inhibition of Urea nitrogen by the compound given as ratio of UN value in treated to vehicle treated ones after intraperitoneal administration of 10 mg/kg of compound to rats(vehicle 93.6+/-8.6). The note with it: ip. It is filed as functional.
In experiment [8] the test system is Rattus norvegicus. Put plainly: Ratio of urinary excretion value (urinary volume) in treated rats to that in control rats, at a peroral dose of 12.5 mg/Kg. It is filed as functional, Urine.
For experiment [9], the system named is Rattus norvegicus. Put plainly: Ratio of urinary excretion value (Na+ concentration) in treated rats to that in control rats, at a peroral dose of 6.25 mg/Kg. The experiment is classed as functional, Urine.
Experiment [10] addresses T1, Adenosine A2 receptor. This is another data set of the same source.
Experiment [11] relates to Rattus norvegicus. In words: Ratio of urinary excretion value (urinary volume) in treated rats to that in control rats, at a peroral dose of 6.25 mg/Kg. The experiment is classed as functional, Urine.
In experiment [12] the test system is Rattus norvegicus. In words: Oral diuretic activity was measured after oral administration of 12.5 mg/kg to rats(control volume is 0.94+/-0.03). It is filed as functional, Urine.
Experiment [13] relates to Rattus norvegicus. Put plainly: Ratio of sodium ion/potassium ion concentration in treated rats to that in control rats, at a peroral dose of 12.5 mg/Kg. It is filed as functional.
Experiment [14] has as its system Rattus norvegicus. In words: Ratio of urinary excretion value (Na+ concentration) in treated rats to that in control rats, at a peroral dose of 0.4 mg/Kg. The experiment is classed as functional, Urine.
Experiment [15] relates to Rattus norvegicus. Put plainly: Ratio of sodium ion/potassium ion concentration in treated rats to that in control rats, at a peroral dose of 0.4 mg/Kg. It is filed as functional.
The subject of experiment [16] is Rattus norvegicus. In words: Serum creatinine concentration measured after intraperitoneal administration of 10 mg/kg of compound to rats(vehicle 3.93+/-0.45). The experiment is classed as functional.
Experiment [17] concerns Rattus norvegicus. Put plainly: Urea nitrogen concentration measured after intraperitoneal administration of 1 mg/kg of compound to rats(vehicle 105.2+/-14.9). The experiment is classed as functional.
For experiment [18], the system named is Rattus norvegicus. In words: Percent inhibition of Urea nitrogen by the compound given as ratio of UN value in treated to vehicle treated ones after intraperitoneal administration of 10 mg/kg of compound to rats(vehicle 129.1+/-14.5). The experiment is classed as functional. Conditions: ip.
In experiment [19] the test system is Rattus norvegicus. In words: Ratio of sodium ion/potassium ion concentration in treated rats to that in control rats, at a peroral dose of 1.6 mg/Kg. It is filed as functional.
Experiment [20] deals with Rattus norvegicus. In words: Ratio of urinary excretion value (urinary volume) in treated rats to that in control rats, at a peroral dose of 1.6 mg/Kg. It is filed as functional, Urine.
The subject of experiment [21] is Rattus norvegicus. Put plainly: Effect on urinary excretion potassium and sodium after oral administration of 0.4 mg/kg to rats(potassium and sodium excretion in control rat is 0.191+/-0.020). The experiment is classed as functional, Urine.
Experiment [22] deals with Rattus norvegicus. In words: Urea nitrogen concentration measured after intraperitoneal administration of 10 mg/kg of compound to rats(vehicle 129.1+/-14.5). It is filed as functional.
Experiment [23] relates to Rattus norvegicus. Put plainly: Percent inhibition of Urea nitrogen by the compound given as ratio of UN value in treated to vehicle treated ones after intraperitoneal administration of 1 mg/kg of compound to rats(vehicle 105.2+/-14.9). The experiment is classed as functional. Conditions: ip.
Experiment [24] deals with Rattus norvegicus. In words: Ratio of urinary excretion value (urinary volume) in treated rats to that in control rats, at a peroral dose of 0.4 mg/Kg. The experiment is classed as functional, Urine.
For experiment [25], the system named is Rattus norvegicus. In words: Ratio of urinary excretion value (Na+ concentration) in treated rats to that in control rats, at a peroral dose of 1.6 mg/Kg. The experiment is classed as functional, Urine.
Experiment [26] deals with Rattus norvegicus. In words: Percent inhibition of serum creatinine by the compound given as ratio of Cr value in treated to vehicle treated ones after intraperitoneal administration of 10 mg/kg of compound to rats(vehicle 3.93+/-0.45). The experiment is classed as functional. Conditions: ip.
Experiment [27] deals with Rattus norvegicus. In words: Percent inhibition of serum creatinine by the compound given as ratio of Cr value in treated to vehicle treated ones after intraperitoneal administration of 1 mg/kg of compound to rats(vehicle 3.62+/-0.52). The experiment is classed as functional. The note with it: ip.
In experiment [28] the test system is Rattus norvegicus. Put plainly: Oral diuretic activity was measured after oral administration of 1.6 mg/kg to rats(control volume is 0.96+/-0.09). It is filed as functional, Urine.
The test system of experiment [29] is Rattus norvegicus. Put plainly: Oral diuretic activity was measured after oral administration of 0.4 mg/kg to rats(control volume is 1.15+/-0.17). The experiment is classed as functional, Urine.
In experiment [30] the test system is Rattus norvegicus. Put plainly: Serum creatinine concentration measured after intraperitoneal administration of 1 mg/kg of compound to rats(vehicle 3.62+/-0.52). It is filed as functional.
The subject of experiment [31] is Rattus norvegicus. Put plainly: Effect on urinary excretion potassium and sodium after oral administration of 1.6 mg/kg to rats(potassium and sodium excretion in control rat is 0.147+/-0.015). It is filed as functional, Urine.
A further experiment deals with T2, Adenosine receptor A1 (Cavia porcellus, UniProt P47745).
T2 sequence (P47745 whole entry): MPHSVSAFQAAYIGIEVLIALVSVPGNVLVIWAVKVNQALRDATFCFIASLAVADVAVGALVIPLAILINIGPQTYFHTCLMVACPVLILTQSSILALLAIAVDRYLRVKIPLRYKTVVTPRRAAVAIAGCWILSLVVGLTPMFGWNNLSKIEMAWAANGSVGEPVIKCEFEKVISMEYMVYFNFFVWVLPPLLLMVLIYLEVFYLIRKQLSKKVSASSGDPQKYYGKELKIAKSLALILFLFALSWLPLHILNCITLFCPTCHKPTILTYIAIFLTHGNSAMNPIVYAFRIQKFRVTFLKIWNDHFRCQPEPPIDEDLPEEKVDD

Experiment [32] relates to Rattus norvegicus. In words: Serum creatinine concentration measured after intraperitoneal administration of 10 mg/kg of compound to rats(vehicle 4.98+/-0.08). The experiment is classed as functional.
Experiment [33] concerns Rattus norvegicus. Put plainly: Effect on urinary excretion potassium and sodium after oral administration of 25 mg/kg to rats(potassium and sodium excretion in control rat is […]+/-[…]). It is filed as functional, Urine.
In experiment [34] the test system is Rattus norvegicus. Put plainly: Ratio of urinary excretion value (Na+ concentration) in treated rats to that in control rats, at a peroral dose of 25 mg/Kg. The experiment is classed as functional, Urine.
The subject of experiment [35] is Rattus norvegicus. Put plainly: Percent inhibition of serum creatinine by the compound given as ratio of Cr value in treated to vehicle treated ones after intraperitoneal administration of 10 mg/kg of compound to rats(vehicle 4.98+/-0.08). The note with it: ip. The experiment is classed as functional.
The subject of experiment [36] is Rattus norvegicus. Put plainly: Ratio of urinary excretion value (urinary volume) in treated rats to that in control rats, at a peroral dose of 25 mg/Kg. It is filed as functional, Urine.
Experiment [37] relates to Rattus norvegicus. Put plainly: Percent inhibition of Urea nitrogen by the compound given as ratio of UN value in treated to vehicle treated ones after intraperitoneal administration of 10 mg/kg of compound to rats(vehicle 150.7+/-3.4). It is filed as functional. Conditions: ip.
Experiment [38] deals with Rattus norvegicus. In words: Oral diuretic activity was measured after oral administration of 25 mg/kg to rats(control volume is 0.89+/-0.06). The experiment is classed as functional, Urine.
Experiment [39] has as its system Rattus norvegicus. Put plainly: Ratio of sodium ion/potassium ion concentration in treated rats to that in control rats, at a peroral dose of 25 mg/Kg. It is filed as functional.
Experiment [40] has as its system Rattus norvegicus. In words: Urea nitrogen concentration measured after intraperitoneal administration of 10 mg/kg of compound to rats(vehicle 150.7+/-3.4). The experiment is classed as functional.

A value given as a limit tells only on which side of the number the result lay.

Description for Adenosine receptor A1: Binding affinity against adenosine A1 receptor in guinea pig forebrain membranes using N6-[3H]cyclohexyladenosine as radioligand

In the experiment on Rattus norvegicus [1], `CCCn1c(=O)c2nc(-c3ccc(S(=O)(=O)N(C)CCN(C)C)cc3)[nH]c2n(CCC)c1=O` gave a UN of 62.6 mg/dL. Moreover, the Na in the experiment with Rattus norvegicus [2] worked out at 0.21 m equiv 6hr-1 100g-1. For the same compound, the T/C in the experiment with Rattus norvegicus [3] was 1.78; in the experiment on Rattus norvegicus [8], 1.64; in the experiment on Rattus norvegicus [9], 1.06; in the experiment with Rattus norvegicus [11], 1.17. For the same compound, the Ki on Adenosine A2 receptor [4] was determined as 15.5 nM; at Adenosine A2 receptor [10], 26 nM. In the experiment with Rattus norvegicus [5], this compound gave a Cr of 2.31 mg/dL. For the same compound, the figures for the inhibition in vivo at 10 mg/kg in the experiment with Rattus norvegicus [6] and with Rattus norvegicus [7] were 20% and 33%, respectively. In the experiment on Rattus norvegicus [12], this compound yielded a Urine volume of 1.54 ml 6hr-1 100g-1. Also, in the experiment on Rattus norvegicus [13], the “Na+/K+” value was 1.56.
With `CCCCn1c(=O)c2nc(C(C3CC3)C3CC3)[nH]c2n(CCCC)c1=O`, the T/C in the experiment on Rattus norvegicus [14] is listed as 1.44; in the experiment with Rattus norvegicus [20], 1.66; in the experiment with Rattus norvegicus [24], 1.08; with Rattus norvegicus [25] it was 1.91. Also, the “Na+/K+” value with Rattus norvegicus [15] turned out to be 1.45; in the experiment on Rattus norvegicus [19], 1.66. The Cr in the experiment with Rattus norvegicus [16] came to 2.3 mg/dL; in the experiment on Rattus norvegicus [30], 3.63 mg/dL. Moreover, the UN in the experiment with Rattus norvegicus [17] was 101.1 mg/dL; in the experiment on Rattus norvegicus [22], 81.1 mg/dL. Also, the inhibition in vivo at 10 mg/kg came to 37% in the experiment with Rattus norvegicus [18] and 41% with Rattus norvegicus [26]. Also, the Na with Rattus norvegicus [21] is 0.276 m equiv 6hr-1 100g-1; in the experiment with Rattus norvegicus [31], 0.282 m equiv 6hr-1 100g-1. For the same compound, the inhibition in vivo at 1 mg/kg was 4% with Rattus norvegicus [23] and 0% in the experiment with Rattus norvegicus [27]. In addition, the Urine volume with Rattus norvegicus [28] is listed as 1.59 ml 6hr-1 100g-1; in the experiment with Rattus norvegicus [29], 1.24 ml 6hr-1 100g-1. The compound also came in with a Ki at Adenosine A2 receptor [10] of 440 nM.
Consider `CCCn1c(=O)c2c(nc(C(C3CC3)C3CC3)n2CC(=O)O)n(CCC)c1=O`, for which the values for the Ki at Adenosine receptor A1 and on Adenosine A2 receptor [10] were 6900 nM and greater than 100000 nM, respectively. In the experiment on Rattus norvegicus [32], this compound had a Cr of 4.79 mg/dL. In addition, the Na in the experiment on Rattus norvegicus [33] worked out at 0.185 m equiv 6hr-1 100g-1. In addition, the T/C in the experiment with Rattus norvegicus [34] is 1.14; with Rattus norvegicus [36], 1.15. Besides, the values for the inhibition in vivo at 10 mg/kg with Rattus norvegicus [35] and in the experiment with Rattus norvegicus [37] were 4% and 3%, respectively. Also, in the experiment on Rattus norvegicus [38], the Urine volume turned out to be 1.02 ml 6hr-1 100g-1. In addition, the “Na+/K+” value in the experiment on Rattus norvegicus [39] turned out to be 0.95. In addition, in the experiment on Rattus norvegicus [40], the UN amounted to 145.5 mg/dL.
For `Nc1nc2ccc(Cl)cc2c2nc(-c3ccco3)nn12` [CGS-15943], the T/C in the experiment with Rattus norvegicus [34] was 1.46; in the experiment on Rattus norvegicus [36], 1.02. Further, the Ki on Adenosine A2 receptor [4] is on record as 3.3 nM; on Adenosine A2 receptor [10] it was 0.73 nM. Besides, the “Na+/K+” value with Rattus norvegicus [39] amounted to 1.07.

One may read the Ki as a dissociation constant, usually derived from enzyme kinetics or from competition with a known ligand. As usually defined, the inhibition in vivo is the relative decrease from the control value, in per cent.
